Assay results from US8969565B2, “Imidazo[1,2-b]pyridazine-based compounds, compositions comprising them, and methods of their use” (Lexicon Pharmaceuticals, Inc., priority 2012, dated 2015).

biological target: T1, AAK1 (Homo sapiens, UniProt Q2M2I8); test: HEK281 cell-based assay (phospho-mu2 Western blot in transfected HEK293F cells); settings: 3 hours incubation, read-out: CBA IC50
T1 construct: HA; expressed in transfected cells; host or cells: HEK293F
Outline: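 After 3 hours at 37° C. with compound (five 3-fold-spaced concentrations, DMEM+0.5% FBS), transiently transfected HEK293F cells expressing full-length human AAK1 and Flag-tagged mu2 were lysed. mu2 phosphorylation was read by anti-phospho-mu2 immunoblot, normalized against total mu2 by anti-Flag blot.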

T1 sequence (Q2M2I8 1-863 isoform Q2M2I8-2): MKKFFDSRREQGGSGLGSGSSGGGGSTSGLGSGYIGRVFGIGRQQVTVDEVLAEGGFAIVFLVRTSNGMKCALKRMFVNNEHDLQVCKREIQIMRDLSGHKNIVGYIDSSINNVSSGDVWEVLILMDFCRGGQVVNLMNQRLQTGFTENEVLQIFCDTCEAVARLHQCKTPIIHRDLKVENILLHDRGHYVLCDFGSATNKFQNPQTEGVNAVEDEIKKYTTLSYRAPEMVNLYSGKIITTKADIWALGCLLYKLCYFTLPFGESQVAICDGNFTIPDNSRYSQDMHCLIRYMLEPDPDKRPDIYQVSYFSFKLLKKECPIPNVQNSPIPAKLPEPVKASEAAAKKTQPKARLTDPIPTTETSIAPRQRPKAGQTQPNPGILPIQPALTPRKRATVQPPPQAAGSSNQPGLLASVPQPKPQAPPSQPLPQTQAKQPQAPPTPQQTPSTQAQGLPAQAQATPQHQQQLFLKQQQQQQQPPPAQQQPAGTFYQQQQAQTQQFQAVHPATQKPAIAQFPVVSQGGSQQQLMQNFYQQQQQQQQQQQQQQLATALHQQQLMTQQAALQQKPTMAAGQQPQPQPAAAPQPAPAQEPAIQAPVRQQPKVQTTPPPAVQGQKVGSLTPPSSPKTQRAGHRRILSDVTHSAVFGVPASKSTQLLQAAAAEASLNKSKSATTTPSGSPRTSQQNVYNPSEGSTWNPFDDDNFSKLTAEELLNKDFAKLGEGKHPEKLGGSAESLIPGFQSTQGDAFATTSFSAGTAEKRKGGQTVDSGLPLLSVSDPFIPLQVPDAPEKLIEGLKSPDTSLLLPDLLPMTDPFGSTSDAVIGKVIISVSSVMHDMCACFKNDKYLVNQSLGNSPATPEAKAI

SMILES	IC50 [nM]
CC(C)OCCNc1ccc2ncc(-c3cscn3)n2n1 [N-(2-isopropoxyethyl)-3-(thiazol-4-yl)imidazo[1,2-b]pyridazin-6-amine]	≤ 1000
COc1cnccc1-c1cnc2ccc(NC[C@@H]3CCN(C(=O)OC(C)(C)C)C3)nn12 [(S)-tert-butyl 3-(((3-(3-methoxypyridin-4-yl)imidazo[1,2-b]pyridazin-6-yl)amino)methyl)pyrrolidine-1-carboxylate]	≤ 1000
CCCCNc1ccc2ncc(-c3ccc(CNC(C)(C)C)cc3F)n2n1 [N-butyl-3-(4-((tert-butylamino)methyl)-2-fluorophenyl)imidazo[1,2-b]pyridazin-6-amine]	≤ 1000
CN(CCCNc1ccc2ncc(-c3ccc(CN)s3)n2n1)c1ccccc1 [N1-(3-(5-(aminomethyl)thiophen-2-yl)imidazo[1,2-b]pyridazin-6-yl)-N3-methyl-N3-phenylpropane-1,3-diamine]	≤ 1000
NCc1ccc(-c2cnc3ccc(NCCC4CC4)nn23)cc1 [3-(4-(aminomethyl)phenyl)-N-(2-cyclopropylethyl)imidazo[1,2-b]pyridazin-6-amine]	≤ 1000
CC(C)OC(=O)N1CCC[C@H]1CNc1ccc2ncc(Br)n2n1 [(S)-isopropyl 2-(((3-bromoimidazo[1,2-b]pyridazin-6-yl)amino)methyl)pyrrolidine-1-carboxylate]	≤ 1000
CCCCNc1ccc2ncc(-c3ccc(C(=O)N4CCC(N)CC4)cc3)n2n1 [(4-aminopiperidin-1-yl)(4-(6-(butylamino)imidazo[1,2-b]pyridazin-3-yl)phenyl)methanone]	≤ 1000
CCCCCNc1ccc2ncc(-c3ccc(CNCCOC)cc3)n2n1 [3-(4-(((2-methoxyethyl)amino)methyl)phenyl)-N-pentylimidazo[1,2-b]pyridazin-6-amine]	≤ 1000
COc1cnccc1-c1cnc2ccc(NCCN(C)C(=O)OC(C)(C)C)nn12 [tert-butyl (2-((3-(3-methoxypyridin-4-yl)imidazo[1,2-b]pyridazin-6-yl)amino)ethyl)(methyl)carbamate]	≤ 1000
c1ccc(CCCNc2ccc3ncc(-c4ccc(C5CCCN5)cc4)n3n2)cc1 (stereo not shown) [N-(3-phenylpropyl)-3-(4-(pyrrolidin-2-yl)phenyl)imidazo[1,2-b]pyridazin-6-amine]	≤ 1000
NCc1ccc(-c2cnc3ccc(NCCOc4ccccc4)nn23)cc1 [3-(4-(aminomethyl)phenyl)-N-(2-phenoxyethyl)imidazo[1,2-b]pyridazin-6-amine]	≤ 1000
CC(C)(C)CNc1ccc2ncc(-c3ccc(CN)cc3)n2n1 [3-(4-(aminomethyl)phenyl)-N-neopentylimidazo[1,2-b]pyridazin-6-amine]	≤ 100
CC(C)COC(=O)N(C)CCNc1ccc2ncc(-c3ccc(C(N)=O)cc3)n2n1 [isobutyl (2-((3-(4-carbamoylphenyl)imidazo[1,2-b]pyridazin-6-yl)amino)ethyl)(methyl)carbamate]	≤ 100
CCCCNc1ccc2ncc(-c3ccc(C(=O)NCCCN)cc3)n2n1 [N-(3-aminopropyl)-4-(6-(butylamino)imidazo[1,2-b]pyridazin-3-yl)benzamide]	≤ 1000
NCCCOc1ccc(-c2cnc3ccc(NCCCc4ccccc4)nn23)cc1 [3-(4-(3-aminopropoxy)phenyl)-N-(3-phenylpropyl)imidazo[1,2-b]pyridazin-6-amine]	≤ 100
CC(C)(C)OCCCNc1ccc2ncc(-c3ccnc(N)c3)n2n1 [3-(2-aminopyridin-4-yl)-N-(3-(tert-butoxy)propyl)imidazo[1,2-b]pyridazin-6-amine]	≤ 1000
CNC(=O)c1ccc(-c2cnc3ccc(NCCOC(C)(C)C)nn23)cc1 [4-(6-((2-(tert-butoxy)ethyl)amino)imidazo[1,2-b]pyridazin-3-yl)-N-methylbenzamide]	≤ 100
CCCCNc1ccc2ncc(-c3ccc(C(=O)NCCN)cc3)n2n1 [N-(2-aminoethyl)-4-(6-(butylamino)imidazo[1,2-b]pyridazin-3-yl)benzamide]	≤ 1000

Other lines, results leading:

IC50 [nM]	SMILES
≤ 100	c1cc(C2CCCN2)ccc1-c1cnc2ccc(NCCOC3CCCC3)nn12 (stereo not shown) [N-(2-(cyclopentyloxy)ethyl)-3-(4-(pyrrolidin-2-yl)phenyl)imidazo[1,2-b]pyridazin-6-amine]
≤ 100	CN(CCCNc1ccc2ncc(-c3ccc(CN)cc3)n2n1)c1ccccc1 [N1-(3-(4-(aminomethyl)phenyl)imidazo[1,2-b]pyridazin-6-yl)-N3-methyl-N3-phenylpropane-1,3-diamine]
≤ 10	COc1cnccc1-c1cnc2ccc(N3CCN(C(=O)OC(C)C)CC3)nn12 [isopropyl 4-(3-(3-methoxypyridin-4-yl)imidazo[1,2-b]pyridazin-6-yl)piperazine-1-carboxylate]
≤ 100	NCc1ccc(-c2cnc3ccc(NCCCc4ccc(F)cc4)nn23)cc1 [3-(4-(aminomethyl)phenyl)-N-(3-(4-fluorophenyl)propyl)imidazo[1,2-b]pyridazin-6-amine]
≤ 10	CC(=O)c1ccc(-c2cnc3ccc(NCCN(C)C(=O)OC(C)(C)C)nn23)s1 [tert-butyl (2-((3-(5-acetylthiophen-2-yl)imidazo[1,2-b]pyridazin-6-yl)amino)ethyl)(methyl)carbamate]
≤ 100	NCc1ccc(-c2cnc3ccc(NCCc4cccc(C(F)(F)F)c4)nn23)cc1 [3-(4-(aminomethyl)phenyl)-N-(3-(trifluoromethyl)phenethyl)imidazo[1,2-b]pyridazin-6-amine]
≤ 100	CN(CCCNc1ccc2ncc(-c3ccc(CN)cc3)n2n1)C(=O)OC(C)(C)C [tert-butyl (3-((3-(4-(aminomethyl)phenyl)imidazo[1,2-b]pyridazin-6-yl)amino)propyl)(methyl)carbamate]
≤ 100	COc1ncccc1-c1cnc2ccc(NCCOC3CCCC3)nn12 [N-(2-(cyclopentyloxy)ethyl)-3-(2-methoxypyridin-3-yl)imidazo[1,2-b]pyridazin-6-amine]
≤ 100	CC(C)(C)OC(=O)N1CCCC[C@H]1CNc1ccc2ncc(-c3ccncc3)n2n1 [(S)-tert-butyl 2-(((3-(pyridin-4-yl)imidazo[1,2-b]pyridazin-6-yl)amino)methyl)piperidine-1-carboxylate]
≤ 100	CCOC(=O)CCCNc1ccc2ncc(-c3ccc(CN)cc3)n2n1 [ethyl 4-((3-(4-(aminomethyl)phenyl)imidazo[1,2-b]pyridazin-6-yl)amino)butanoate]
≤ 100	CNC(=O)c1ccc(-c2cnc3ccc(NCCN(C)C(=O)OCC(C)C)nn23)cc1 [isobutyl methyl(2-((3-(4-(methylcarbamoyl)phenyl)imidazo[1,2-b]pyridazin-6-yl)amino)ethyl)carbamate]
≤ 100	CCOc1ccccc1CCNc1ccc2ncc(-c3ccc(CN)cc3)n2n1 [3-(4-(aminomethyl)phenyl)-N-(2-ethoxyphenethyl)imidazo[1,2-b]pyridazin-6-amine]
≤ 100	CC(C)(C)OC(=O)N1CCC[C@H]1CNc1ccc2ncc(C(F)(F)F)n2n1 [(S)-tert-butyl 2-(((3-(trifluoromethyl)imidazo[1,2-b]pyridazin-6-yl)amino)methyl)pyrrolidine-1-carboxylate]
≤ 10	COc1cnccc1-c1cnc2ccc(NCCCC(F)(F)F)nn12 [3-(3-methoxypyridin-4-yl)-N-(4,4,4-trifluorobutyl)imidazo[1,2-b]pyridazin-6-amine]
≤ 100	CCOc1ccccc1CCNc1ccc2ncc(-c3ccncc3OC)n2n1 [N-(2-ethoxyphenethyl)-3-(3-methoxypyridin-4-yl)imidazo[1,2-b]pyridazin-6-amine]
≤ 10	CNC(=O)c1ccc(-c2cnc3ccc(NCCc4ccccc4OC(F)(F)F)nn23)cc1 [N-methyl-4-(6-((2-(trifluoromethoxy)phenethyl)amino)imidazo[1,2-b]pyridazin-3-yl)benzamide]
≤ 100	COc1cnccc1-c1cnc2ccc(NCCNC(=O)OC(C)C)nn12 [isopropyl (2-((3-(3-methoxypyridin-4-yl)imidazo[1,2-b]pyridazin-6-yl)amino)ethyl)carbamate]
≤ 100	CC(C)(C)N1CCN(CCNc2ccc3ncc(-c4ccc(CN)cc4)n3n2)C1=O [1-(2-((3-(4-(aminomethyl)phenyl)imidazo[1,2-b]pyridazin-6-yl)amino)ethyl)-3-(tert-butyl)imidazolidin-2-one]
≤ 100	CC(C)(C)OC(=O)NCCNc1ccc2ncc(-c3ccc(CN)cc3)n2n1 [tert-butyl (2-((3-(4-(aminomethyl)phenyl)imidazo[1,2-b]pyridazin-6-yl)amino)ethyl)carbamate]
≤ 100	COC(=O)N1CCC[C@H]1CNc1ccc2ncc(-c3ccc(C4CCCN4)cc3)n2n1 (stereo partly drawn) [(2S)-methyl 2-(((3-(4-(pyrrolidin-2-yl)phenyl)imidazo[1,2-b]pyridazin-6-yl)amino)methyl)pyrrolidine-1-carboxylate]
≤ 100	CC(C)CC(=O)N1CCC[C@H]1CNc1ccc2ncc(Br)n2n1 [(S)-1-(2-(((3-bromoimidazo[1,2-b]pyridazin-6-yl)amino)methyl)pyrrolidin-1-yl)-3-methylbutan-1-one]
≤ 100	COC(=O)N1CCC[C@H]1CNc1ccc2ncc(-c3ccc(CN)cc3)n2n1 [(S)-methyl 2-(((3-(4-(aminomethyl)phenyl)imidazo[1,2-b]pyridazin-6-yl)amino)methyl)pyrrolidine-1-carboxylate]
≤ 10	COc1cnccc1-c1cnc2ccc(NCCN(C(=O)OC(C)C)C(C)C)nn12 [isopropyl isopropyl(2-((3-(3-methoxypyridin-4-yl)imidazo[1,2-b]pyridazin-6-yl)amino)ethyl)carbamate]
≤ 100	CC(C)(C)CCNc1ccc2ncc(-c3ccc(OCCCN)cc3)n2n1 [3-(4-(3-aminopropoxy)phenyl)-N-(3,3-dimethylbutyl)imidazo[1,2-b]pyridazin-6-amine]
≤ 100	CN(CCNc1ccc2ncc(-c3ccc(C(N)=O)cc3)n2n1)C(=O)CC(C)(C)C [4-(6-((2-(N,3,3-trimethylbutanamido)ethyl)amino)imidazo[1,2-b]pyridazin-3-yl)benzamide]
